Data reported in US20260022126A1, “2-(L,8-DIETHYL-1,3,4,9-TETRAHYDROPYRANO[3,4-B]INDOL-1-YL)-N-(2-(PIPERIDIN-1 YL)ETHYL)ACETAMIDE ETODOLAC DERIVATIVE AS A EUKARYOTIC ELONGATION FACTOR 2 KINASE (EEF2K) INHIBITOR FOR TARGETED CANCER THERAPY” (BAHCESEHIR UNIVERSITESI, priority 2023, published 2026).

How the values were obtained:
eEF2K [1] = biological target: T1, eEF2K (Homo sapiens, UniProt O00418); conditions: literature, cited from earlier work
T1 sequence (O00418 1-725): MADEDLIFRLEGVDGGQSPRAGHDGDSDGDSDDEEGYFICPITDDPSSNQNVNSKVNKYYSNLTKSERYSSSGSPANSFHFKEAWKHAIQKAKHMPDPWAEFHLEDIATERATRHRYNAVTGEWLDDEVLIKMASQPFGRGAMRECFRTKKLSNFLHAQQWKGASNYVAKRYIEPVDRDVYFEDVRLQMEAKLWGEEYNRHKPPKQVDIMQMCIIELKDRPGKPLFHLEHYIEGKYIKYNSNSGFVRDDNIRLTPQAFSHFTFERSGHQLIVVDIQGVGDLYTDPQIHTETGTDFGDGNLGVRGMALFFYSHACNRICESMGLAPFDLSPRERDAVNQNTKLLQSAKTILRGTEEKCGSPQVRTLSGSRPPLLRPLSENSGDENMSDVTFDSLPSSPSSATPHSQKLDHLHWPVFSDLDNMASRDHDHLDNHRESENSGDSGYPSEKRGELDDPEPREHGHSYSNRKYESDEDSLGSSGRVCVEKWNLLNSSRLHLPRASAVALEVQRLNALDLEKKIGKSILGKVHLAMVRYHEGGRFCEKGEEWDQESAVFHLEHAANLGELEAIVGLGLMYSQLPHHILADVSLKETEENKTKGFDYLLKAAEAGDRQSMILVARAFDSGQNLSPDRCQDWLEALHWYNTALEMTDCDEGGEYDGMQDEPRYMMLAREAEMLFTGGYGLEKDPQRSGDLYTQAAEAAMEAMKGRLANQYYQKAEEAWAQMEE

other protein kinases = conditions: literature; cited from earlier work
cancer cells = conditions: literature; very high doses; cited from earlier work
eEF2K [2] = biological target: T1, eEF2K; experiment: Western blot of p-EF2 (Thr56) for eEF2K inhibition in MDA-MB-231 cells; format: cell-based; conditions: for eEF2K inhibition potential: MDA-MB-231 (TNBC) cells, 2.5 to 20 micromolar
Experimental: MeOH: distilled water by volume (%) (70:30) was used as the mobile phase for HPLC analysis for the inventive compound and the flow rate was set to 1 mL min^-1. Triple negative breast cancer (TNBC) cell lines (ER-, PR- and HER2-) MDA-MB-231 cells were purchased from the American Type Culture Collection (ATCC) (Manassas, VA, USA). MDA-MB-231 cells were cultured in Dulbecco's modified Eagle's medium (DMEM)/F12 supplemented with 10% FBS (Fetal Bovine Serum) and 100 U mL^-1 penicillin and streptomycin. Specific antibodies (p-EF2 (Thr56) (2331S), eEF2 (2332S), eEF2K (3692S) and GAPDH (5174S)) were purchased from Cell Signaling Technology (CST).
Western blot analysis was carried out according to previously reported studies to evaluate the eEF2K inhibition activity for the synthesized compounds. The synthesized compound was applied to MDA-MB-231 cells in the range of various concentrations from 2.5 to 20 micromolar for 2 h treatment. The expression levels of p-EF2 (Thr56) inhibition and eEF2K activity were determined by using related antibodies such as p-EF2 (Thr56), eEF2 and eEF2K. Glyceraldehyde 3-phosphate dehydrogenase (GAPDH) was used as a loading control.
To determine the effects of the synthesized compounds in inhibiting eEF2K activity in TNBC, MDA-MB-231 cells, we performed western blot analysis at concentrations ranging from 2.5 micromolar to 20 micromolar in a dose-dependent manner. eEF2K inhibition was detected by decreased phosphorylation levels of EF2 (p-EF2-Thr-56), a direct downstream substrate of the enzyme.

eEF2K inhibition potential (eEF2K [2]; western blot) | Compound | eEF2K inhibition (in words) (eEF2K [1]) | Activity against other kinases (specificity) (other protein kinases) | other results
– | Cc1cc(C=C2C(=O)C=CC2=O)cc(C)c1O [TX1918] | did not show significant eEF2K inhibition | inhibitory activity against five different kinases | Concentration reported to inhibit eEF2K (eEF2K [1]; concentrations as high as): 10 µM
– | CCn1c(=O)c2cc(C(N)=O)c(N)nc2n(C2CC2)c1=O [A484954] | – | – | Dose showing inhibition effect in cancer cells (cancer cells): 75 µM
did not show any inhibition potential | CCc1cccc2c3c([nH]c12)C(CC)(CC(=O)O)OCC3 (racemic) [Etodolac, (R,S)-2-[1,8-diethyl-1,3,4-tetrahydropyrano[3,4-b]indol-1-yl] acetic acid] | – | – | –
– | CC(=O)c1c(O)c(C)c(O)c(Cc2c(O)c3c(c(C(=O)/C=C/c4ccccc4)c2O)OC(C)(C)C=C3)c1O [rottlerin] | – | inhibits various other protein kinases at concentrations lower than those required for inhibition of eEF2K | –
high inhibition potential | CCc1cccc2c3c([nH]c12)C(CC)(CC(=O)NCCN1CCCCC1)OCC3 (stereo not shown) [Inventive compound, 2-(1,8-Diethyl-1,3,4,9-tetrahydropyrano[3,4-b]indol-1-yl)-N-(2-(piperidin-1-yl)ethyl)acetamide] | – | – | phospho-eEF2 (Thr56) inhibition (eEF2K [2]; MDA-MB-231 cells, 2.5 and 5 micromolar, 2 h treatment): highest phospho-eEF2 (Thr56) inhibition; eEF2K inhibition (reduced levels of p-EF2) (eEF2K [2]; MDA-MB-231 cells, 2.5 micromolar, compared to etodolac (EC), western blot): marked inhibition of eEF2K
– | CCCCCCCCCCCCCCCCn1cc[n+](Cc2ccccc2)c1C.[I-] [NH125] | does not inhibit EF2K but rather increases eEF2 phosphorylation | – | –
